Experimental data as given in PubChem BioAssay AID1963872 (Molecular Pharmacology Branch, DTP, NCI, 2024).

System: KRAS patient-derived spheroids with HUVEC/MSC, viability
Assay: Anticancer human tumor 519858-162-T-J1-PDC patient-derived colon adenocarcinoma cell line growth inhibition [KRAS2]
Conditions: for IC50: curve of first compound; for viability, T/C: stronger effect = lower value; active = viability on the fitted dose curve at most 10% of control; inactive = the rest
Summary of the method: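 Combination screen of spheroid viability in tumor-cell co-cultures with endothelial (HUVEC) and mesenchymal stem cell stroma. Each agent was tested in half-log dilutions, topping at clinical Cmax or at 10 microM without a known Cmax.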

[1] = second compound 0.1 µM, first compound 0.00316 µM
[2] = second compound 0.1 µM, first compound 0.01 µM
[3] = second compound 0.1 µM, first compound 0.0316 µM
[4] = second compound 0.1 µM, first compound 0.1 µM
[5] = second compound 0.1 µM, first compound 0.316 µM
[6] = second compound 0.1 µM, first compound 1 µM
[7] = second compound 0.316 µM, first compound 0.00316 µM
[8] = second compound 0.316 µM, first compound 0.01 µM
[9] = second compound 0.316 µM, first compound 0.0316 µM
[10] = second compound 0.316 µM, first compound 0.1 µM
[11] = second compound 0.316 µM, first compound 0.316 µM
[12] = second compound 0.316 µM, first compound 1 µM
[13] = second compound 1 µM, first compound 0.00316 µM
[14] = second compound 1 µM, first compound 0.01 µM
[15] = second compound 1 µM, first compound 0.0316 µM
[16] = second compound 1 µM, first compound 0.1 µM
[17] = second compound 1 µM, first compound 0.316 µM
[18] = second compound 1 µM, first compound 1 µM
[19] = second compound 3.16 µM, first compound 0.00316 µM
[20] = second compound 3.16 µM, first compound 0.01 µM
[21] = second compound 3.16 µM, first compound 0.0316 µM
[22] = second compound 3.16 µM, first compound 0.1 µM
[23] = second compound 3.16 µM, first compound 0.316 µM
[24] = second compound 3.16 µM, first compound 1 µM
[25] = second compound 10 µM, first compound 0.00316 µM
[26] = second compound 10 µM, first compound 0.01 µM
[27] = second compound 10 µM, first compound 0.0316 µM
[28] = second compound 10 µM, first compound 0.1 µM
[29] = second compound 10 µM, first compound 0.316 µM
[30] = second compound 10 µM, first compound 1 µM
[31] = second compound 0.1 µM, first compound 3.16 µM
[32] = second compound 0.1 µM, first compound 10 µM
[33] = second compound 0.316 µM, first compound 3.16 µM
[34] = second compound 0.316 µM, first compound 10 µM
[35] = second compound 1 µM, first compound 3.16 µM
[36] = second compound 1 µM, first compound 10 µM
[37] = second compound 3.16 µM, first compound 3.16 µM
[38] = second compound 3.16 µM, first compound 10 µM
[39] = second compound 10 µM, first compound 3.16 µM
[40] = second compound 10 µM, first compound 10 µM
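Also: compound exposure lasted seven days before readout.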
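For viability, T/C in this document: 100% = DMSO vehicle control viability.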

CCN1CCN(Cc2ccc(Nc3ncc(F)c(-c4cc(F)c5nc(C)n(C(C)C)c5c4)n3)nc2)CC1 + CNCc1ccccc1-c1csc(C(C)Nc2nc(C)nc3cc(OC)c(OC)cc23)c1
< 3.16 nM: IC50 (second compound 10 µM)
207 nM: IC50 (second compound 1 µM)
178 nM: IC50 (second compound 0.316 µM)
22.4 nM: IC50 (second compound 3.16 µM)
640 nM: IC50 (second compound 0.1 µM)
active: viability, T/C [25] 0.31% | viability, T/C [26] 0.24% | viability, T/C [27] 0.75% | viability, T/C [28] 0.26% | viability, T/C [29] 0.21% | viability, T/C [30] 2.71%
inactive: viability, T/C [1] 86% | viability, T/C [2] 67.9% | viability, T/C [3] 88.8% | viability, T/C [4] 82% | viability, T/C [5] 61.4% | viability, T/C [6] 42.8% | viability, T/C [7] 98.1% | viability, T/C [8] 76.4% | viability, T/C [9] 51.9% | viability, T/C [10] 60.9% | viability, T/C [11] 48.1% | viability, T/C [12] 42.9% | viability, T/C [13] 79% | viability, T/C [14] 61.4% | viability, T/C [15] 59.6% | viability, T/C [16] 59.2% | viability, T/C [17] 49.3% | viability, T/C [18] 21.2% | viability, T/C [19] 56.3% | viability, T/C [20] 56.5% | viability, T/C [21] 47.3% | viability, T/C [22] 16.2% | viability, T/C [23] 31.1% | viability, T/C [24] 29.7%

CC(=O)Nc1cccc(-n2c(=O)n(C3CC3)c(=O)c3c(Nc4ccc(I)cc4F)n(C)c(=O)c(C)c32)c1 + COc1cc2nc(C)nc(NC(C)c3cc(N)cc(C(F)(F)F)c3)c2cc1OC1CCOC1
1.01 nM: IC50 (second compound 1 µM)
active: viability, T/C [21] 8.2% | viability, T/C [26] 4.93% | viability, T/C [27] 3.59%
inactive: viability, T/C (second compound 0.1 µM, first compound 0.0001 µM) 83.3% | viability, T/C (second compound 0.1 µM, first compound 0.000316 µM) 74.2% | viability, T/C (second compound 0.1 µM, first compound 0.001 µM) 65% | viability, T/C [1] 39.6% | viability, T/C [2] 36.1% | viability, T/C [3] 12.5% | viability, T/C (second compound 0.316 µM, first compound 0.0001 µM) 64.8% | viability, T/C (second compound 0.316 µM, first compound 0.000316 µM) 85.2% | viability, T/C (second compound 0.316 µM, first compound 0.001 µM) 73.8% | viability, T/C [7] 34.7% | viability, T/C [8] 24.2% | viability, T/C [9] 13.8% | viability, T/C (second compound 1 µM, first compound 0.0001 µM) 72.2% | viability, T/C (second compound 1 µM, first compound 0.000316 µM) 59.3% | viability, T/C (second compound 1 µM, first compound 0.001 µM) 53.1% | viability, T/C [13] 33.6% | viability, T/C [14] 18.5% | viability, T/C [15] 11% | viability, T/C (second compound 3.16 µM, first compound 0.0001 µM) 67.8% | viability, T/C (second compound 3.16 µM, first compound 0.000316 µM) 46.3% | viability, T/C (second compound 3.16 µM, first compound 0.001 µM) 30.6% | viability, T/C [19] 27.7% | viability, T/C [20] 11.9% | viability, T/C (second compound 10 µM, first compound 0.0001 µM) 69.2% | viability, T/C (second compound 10 µM, first compound 0.000316 µM) 32.2% | viability, T/C (second compound 10 µM, first compound 0.001 µM) 31.9% | viability, T/C [25] 6.2%
0.203 nM: IC50 (second compound 10 µM)
0.275 nM: IC50 (second compound 3.16 µM)
2.01 nM: IC50 (second compound 0.316 µM)
2.46 nM: IC50 (second compound 0.1 µM)

CC1(C)CCC(CN2CCN(c3ccc(C(=O)NS(=O)(=O)c4ccc(NCC5CCOCC5)c([N+](=O)[O-])c4)c(Oc4cnc5[nH]ccc5c4)c3)CC2)=C(c2ccc(Cl)cc2)C1 + CNCc1ccccc1-c1csc(C(C)Nc2nc(C)nc3cc(OC)c(OC)cc23)c1
31.6 nM: IC50 (second compound 3.16 µM)
inactive: viability, T/C [3] 69.5% | viability, T/C [4] 86.8% | viability, T/C [5] 92.7% | viability, T/C [6] 68% | viability, T/C [31] 69.9% | viability, T/C [32] 60.4% | viability, T/C [9] 67.5% | viability, T/C [10] 78.4% | viability, T/C [11] 78.4% | viability, T/C [12] 80.8% | viability, T/C [33] 68.3% | viability, T/C [34] 60.1% | viability, T/C [15] 74% | viability, T/C [16] 78.9% | viability, T/C [17] 84.5% | viability, T/C [18] 101% | viability, T/C [35] 46.8% | viability, T/C [36] 27.6% | viability, T/C [21] 38.8% | viability, T/C [22] 45.8% | viability, T/C [23] 48.2% | viability, T/C [24] 67% | viability, T/C [37] 41.7% | viability, T/C [38] 15.5%
2870 nM: IC50 (second compound 1 µM)
< 31.6 nM: IC50 (second compound 10 µM)
> 10000 nM: IC50 (second compound 0.1 µM) | IC50 (second compound 0.316 µM)
active: viability, T/C [27] 0.32% | viability, T/C [28] 0.34% | viability, T/C [29] 0.37% | viability, T/C [30] 0.27% | viability, T/C [39] 0.28% | viability, T/C [40] 0.35%

CC(=O)Nc1cccc(-n2c(=O)n(C3CC3)c(=O)c3c(Nc4ccc(I)cc4F)n(C)c(=O)c(C)c32)c1
inactive: viability, T/C (compound 0.0001 µM) 82.5% [middle of 5 runs] | viability, T/C (compound 0.01 µM) 35.6% [middle of 5 runs] | viability, T/C (compound 0.0316 µM) 20.8% [middle of 5 runs]

CCNC(=O)CC1N=C(c2ccc(Cl)cc2)c2cc(OC)ccc2-n2c(C)nnc21 (stereo not drawn) + CNCc1ccccc1-c1csc(C(C)Nc2nc(C)nc3cc(OC)c(OC)cc23)c1
2250 nM: IC50 (second compound 0.1 µM)
< 31.6 nM: IC50 (second compound 10 µM)
73.9 nM: IC50 (second compound 3.16 µM)
510 nM: IC50 (second compound 1 µM)
1370 nM: IC50 (second compound 0.316 µM)
inactive: viability, T/C [3] 82.5% | viability, T/C [4] 109% | viability, T/C [5] 87.2% | viability, T/C [6] 67.5% | viability, T/C [31] 43.8% | viability, T/C [32] 19.8% | viability, T/C [9] 81.5% | viability, T/C [10] 74.5% | viability, T/C [11] 65.6% | viability, T/C [12] 52.4% | viability, T/C [33] 41.2% | viability, T/C [34] 25.6% | viability, T/C [15] 61.1% | viability, T/C [16] 59% | viability, T/C [17] 54.2% | viability, T/C [18] 44% | viability, T/C [35] 34.9% | viability, T/C [36] 24.2% | viability, T/C [21] 51.9% | viability, T/C [22] 54% | viability, T/C [23] 37.5% | viability, T/C [24] 29.1% | viability, T/C [37] 23.9% | viability, T/C [38] 9.53%
active: viability, T/C [27] 0.36% | viability, T/C [28] 1.18% | viability, T/C [29] 0.49% | viability, T/C [30] 0.46% | viability, T/C [39] 0.69% | viability, T/C [40] 0.69%
